Measurements taken from patent US6576639B1, “Compounds for the inhibition of farnesyl protein transferase” (Schering Corporation, priority 1997, dated 2003).
Each block holds one compound with its values, some of them ahead of it.

What was measured:
[1] = target: farnesyl protein transferase (Homo sapiens, UniProt P49354+P49356); assay: FPT IC50 (inhibition of farnesyl protein transferase, in vitro enzyme assay, per WO 95/10516); assay type: biochemical; conditions: for IC50: in vitro enzyme assay
Chain of farnesyl protein transferase (P49356 whole entry, one chain of several): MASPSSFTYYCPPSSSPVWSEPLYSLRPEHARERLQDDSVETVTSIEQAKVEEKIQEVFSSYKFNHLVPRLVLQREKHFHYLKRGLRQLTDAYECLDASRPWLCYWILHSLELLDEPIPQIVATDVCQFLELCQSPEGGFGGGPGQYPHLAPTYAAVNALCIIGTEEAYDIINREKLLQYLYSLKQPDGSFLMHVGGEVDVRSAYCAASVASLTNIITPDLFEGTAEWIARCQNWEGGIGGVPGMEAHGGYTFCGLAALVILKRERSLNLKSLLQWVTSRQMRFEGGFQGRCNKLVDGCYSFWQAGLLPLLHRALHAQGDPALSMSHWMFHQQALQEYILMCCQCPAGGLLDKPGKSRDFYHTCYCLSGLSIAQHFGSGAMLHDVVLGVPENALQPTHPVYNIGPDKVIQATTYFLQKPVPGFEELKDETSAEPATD
Experimental: (§1) FPT IC50 (inhibition of farnesyl protein transferase, in vitro enzyme assay) was determined following the assay procedures described in WO 95/10516, published Apr. 20, 1995. GGPT IC50 (inhibition of geranylgeranyl protein transferase, in vitro enzyme assay), COS Cell IC50 (Cell-Based Assay), Cell Mat Assay, and anti-tumor activity (in vivo anti-tumor studies) could be determined by the assay procedures described in WO 95/10516. The disclosure of WO 95/10516 is incorporated herein by reference thereto.

[2] = test system: Human tumor cells; assay: Soft Agar Assay (anchorage-independent growth); assay type: cell-based
Experimental: Anchorage-independent growth is a characteristic of tumorigenic cell lines. Human tumor cells can be suspended in growth medium containing 0.3% agarose and an indicated concentration of a farnesyl transferase inhibitor. The solution can be overlayed onto growth medium solidified with 0.6% agarose containing the same concentration of farnesyl transferase inhibitor as the top layer. After the top layer is solidified, plates can be incubated for 10-16 days at 37° C. under 5% CO2 to allow colony outgrowth. After incubation, the colonies can be stained by overlaying the agar with a solution of MTT (3-[4,5-dimethyl-thiazol-2-yl]-2,5-diphenyltetrazolium bromide, Thiazolyl blue) (1 mg/mL in PBS). Colonies can be counted and the IC50's can be determined.

[3] = test system: COS Cell; assay: COS Cell IC50 (Cell-Based Assay, per WO 95/10516)
Experimental: as §1

[4] = target: T1, human FPT (Homo sapiens, UniProt P49354+P49356); assay: FPT pM IC50 Assay; assay type: biochemical; conditions: 30 pM human FPT, biotin-CVLS substrate, 37° C., 1 hour
T1 construct: made in house; host or cells: Baculovirus/Sf-9
Experimental: The enzymatic reaction is performed in 50 mM Tris, 5 μM ZnCl2, 5 mM MgCl2, 0.01% Triton X-100, 5 mM dithiolthreitol (DTT), pH 7.7 (Buffer R) at 37° C. for 1 hour. The purified human FPT (>95% pure) was derived from a Baculovirus/Sf-9 expression system. The peptide substrate used was biotin-CVLS (SynPep Corp., Dublin, Calif.) and (1-^3H)-FPP (21.5 Ci/mmol) was obtained from New England Nuclear Life Science Products (Boston, Mass.). Compounds were initially dissolved to a final concentration of 4 mg/ml in 100% DMSO and then to 0.25 μg/ml in 100% DMSO. Subsequent dilutions of the compound were performed in Buffer R.
The enzymatic reaction is performed in a final volume of 100 μl. Reactions are carried out in a 96 well plate format. […] The reaction is stopped using 150 μl of the Stop Solution consisting of 1.3 mg/ml scintillation beads (strepavidin-coated scintillation proximity beads from Amersham (Arlington Heights, Ill.), 250 mM EDTA, pH 8.0 and 0.5% BSA. The radioactivity is measured after 20 minutes at room temperature.
Compounds are evaluated for their ability to inhibit the reaction by measuring the concentration-dependent percent inhibition of the reaction. […] The enzymatic activity was recorded by measuring the CPM/well using a Wallac 1204 Betaplate BS liquid scintillation counter. […]

IC50 [1]: 23 nM
SMILES: NC(=O)N1CCC(CC(=O)N2CCN(C3c4ccc(Cl)cc4CCc4cc(Br)c[n+]([O-])c43)CC2)CC1 (racemic) [Example 9, (±) 4-[2-[(3-Bromo-8-chloro-6,11-dihydro-5H-benzo[5,6]cyclohepta [1,2-b]pyridin-11-yl)-1-piperazinyl]-2-oxoethyl]-1-piperidinecarboxamide N1-oxide]

FPT percent inhibition ([1]; @150 nM): 42%
SMILES: NC(=O)N1CCC(CC(=O)N2CCC(C3c4c(Br)cc(Cl)cc4CCc4cc(Br)c[n+]([O-])c43)CC2)CC1 (centres unmarked) [Compound 54.0]

IC50 [2]: 45 nM
IC50 [1]: 1.4 nM
SMILES: NC(=O)N1CCC(CC(=O)N2CCC([C@@H]3c4c(Br)cc(Cl)cc4CCc4cc(Br)c[n+]([O-])c43)CC2)CC1 [Example 2, (+)-4-[2-[4-(3,10-Dibromo-8-chloro-6,11-dihydro-5H-benzo [5,6]cyclohepta[1,2-b]pyridin-11(R)-YL)-1-piperidinyl]-2-oxoethyl]-1-piperidinecarboxamide N-oxide]
IC50 [3]: 9 nM

IC50 [2]: 25 nM
IC50 [1]: 0.7 nM
SMILES: O=C(Cc1cc[n+]([O-])cc1)N1CCC([C@@H]2c3c(Br)cc(Cl)cc3CCc3cc(Br)c[n+]([O-])c32)CC1 [Example 3]
IC50 [3]: 11.5 nM

IC50 [1]: 18 nM
SMILES: NC(=O)N1CCC(CC(=O)N2CCC([C@H]3c4ccc(Cl)c(Br)c4CCc4cc(Br)c[n+]([O-])c43)CC2)CC1 [Example 4]

IC50 [1]: 28 nM
SMILES: O=C(Cc1cc[n+]([O-])cc1)N1CCC([C@H]2c3ccc(Cl)c(Br)c3CCc3cc(Br)c[n+]([O-])c32)CC1 [Example 5, (−)-4-(8-Chloro-3,7-Dibromo-6,11-Dihydro-5H-Benzo[5,6]Cyclohepta [1,2-b]Pyridin-11-yl)-1-(4-Pyridinylacetyl)Piperidine N1-Oxide, N4-Oxide]

SMILES: O=C(Cc1cc[n+]([O-])cc1)N1CCC(C2c3ccc(Cl)cc3C=Cc3cc(Br)c[n+]([O-])c32)CC1 (centres unmarked) [Example 6, 4-(3-Bromo-8-Chloro-11H-Benzo[5.6]Cyclohepta[1,2-b]Pyridi-11-yl) -1-(4-Pyridinylacetyl)Piperidine N1-Oxide, N4-Oxide]
IC50 [1]: 63 nM

SMILES: O=C(Cc1cc[n+]([O-])cc1)N1CCN([C@@H]2c3ccc(Cl)cc3CCc3cc(Br)c[n+]([O-])c32)CC1 [Example 7]
IC50 [2]: 183 nM
IC50 [1]: 6.3 nM
IC50 [4]: 440 pM
IC50 [3]: 85 nM

SMILES: O=C(Cc1cc[n+]([O-])cc1)N1CCN([C@H]2c3ccc(Cl)cc3CCc3cc(Br)c[n+]([O-])c32)CC1 [Example 8]
FPT percent inhibition ([1]; @ 170 (concentration unit not given)): 39% @ 170

IC50 [1]: 12 nM
SMILES: NC(=O)N1CCC(CC(=O)N2CCN([C@@H]3c4ccc(Cl)cc4CCc4cc(Br)c[n+]([O-])c43)CC2)CC1 [Example 10, (+) 4-[2-[(3-Bromo-8-chloro-6,11-dihydro-5H-benzo[5,6]cyclo-hepta [1,2-b]pyridin-11R-yl)-1-piperazinyl]-2-oxoethyl]-1-piperidinecarboxamide N1-oxide]

FPT percent inhibition ([1]; @ 160 (concentration unit not given)): 24% @ 160
SMILES: NC(=O)N1CCC(CC(=O)N2CCN([C@H]3c4ccc(Cl)cc4CCc4cc(Br)c[n+]([O-])c43)CC2)CC1 [Example 11, (−) 4-[2-[(3-Bromo-8-chloro-6,11-dihydro-5H-benzo[5,6]cyclo-hepta [1,2-b]pyridin-11S-yl)-1-piperazinyl]-2-oxoethyl]-1-piperidinecarboxamide N1-oxide]

melting point: 146.8 to 147.4 °C
IC50 [1]: 35 nM
SMILES: NC(=O)N1CCC(CC(=O)N2CCC([C@@H]3c4ccc(Cl)cc4CCc4cc(Br)c[n+]([O-])c43)CC2)CC1 [Example 12]

melting point: 120 to 121 °C
IC50 [1]: 174 nM
SMILES: NC(=O)N1CCC(CC(=O)N2CCC([C@H]3c4ccc(Cl)cc4CCc4cc(Br)c[n+]([O-])c43)CC2)CC1 [Example 13]

melting point: 109 to 110 °C
FPT percent inhibition ([1]; @ 180 (concentration unit not given)): 25% @ 180
SMILES: O=C(Cc1cc[n+]([O-])cc1)N1CCC([C@H]2c3ccc(Cl)cc3C=Cc3cc(Br)c[n+]([O-])c32)CC1 [Example 14]

melting point: 125.5 to 126.3 °C
IC50 [1]: 19 nM
SMILES: O=C(Cc1cc[n+]([O-])cc1)N1CCC([C@@H]2c3ccc(Cl)cc3C=Cc3cc(Br)c[n+]([O-])c32)CC1 [Example 15]
